Assay [1] relates to LPS-treated wild type C57BL/6 mice. Kind of assay: Serum IL-6 in LPS-treated mice, oral LA1 dose response. The assay is classed as in vivo. As to conditions: 4 hours. The procedure:
FIG. 11 illustrates the concentration of biomarker IL-6 in wild type mice and wild type mice co-treated with various dose amounts of LPS and LA1 (0, 2, 10, 30, or 60 mg/kg). Each dot represents a unique sample. Bars show mean +/−SEM (n=4).
Administration of LPS to wild type C57BL/6 mice (WT) results in rapid elevation of pro-inflammatory mediators, such as IL-6, in murine sera. WT mice treated with LPS were used to study the dose-responsive efficacy of LA1 in reducing inflammatory cytokine levels in vivo. A single dose of LA 1 was orally administered to mice co-administered LPS. After 4 hours, sera was collected and used for ELISA.

For assay [2], the system named is BMDMs from C57BL/6 mice expressing CD11b with a point mutation (KI). Kind of assay: Biomarker secretion from IMQ-treated bone marrow derived macrophages of CD11b KI mice. The assay is classed as cell-based. The following applies: KI cells (genetically activated CD11b), IMQ (20 ug/mL) and LA1 (20 uM) co-treatment, 4 hours. On the procedure: FIG. 7A illustrates levels of biomarker IL-6 secretion in bone marrow derived macrophages (BMDMs) from C57BL/6 wild type (WT) mice, mice with global deletion of CD11b (KO), or C57BL/6 mice expressing CD11b with a point mutation (KI), the macrophages treated for 4 hours with vehicle DMSO (UT), LA1 (20 uM), IMQ (20 ug/mL), or IMQ and LA1 co-treatment. Bars show mean with SD (N=3) (*P<0.05, **P<0.01, ***P<0.001, ****P<0.0001).
FIG. 7B illustrates levels of biomarker IL-1b secretion in bone marrow derived macrophages (BMDMs) from C57BL/6 wild type (WT) mice, mice with global deletion of CD11b (KO), or C57BL/6 mice expressing CD11b with a point mutation (KI), the macrophages treated for 4 hours with vehicle DMSO (UT), LA1 (20 uM), IMQ (20 ug/mL), or IMQ and LA1 co-treatment. Bars show mean with SD (N=3) (*P<0.05, **P<0.01, ***P<0.001, ****P<0.0001).
FIG. 7C illustrates levels of biomarker suPAR secretion in bone marrow derived macrophages (BMDMs) from C57BL/6 wild type (WT) mice, mice with global deletion of CD11b (KO), or C57BL/6 mice expressing CD11b with a point mutation (KI), the macrophages treated for 4 hours with vehicle DMSO (UT), LA1 (20 uM), IMQ (20 ug/mL), or IMQ and LA1 co-treatment. Bars show mean with SD (N=3) (*P<0.05, **P<0.01, ***P<0.001, ****P<0.0001).
FIG. 7D illustrates levels of biomarker IFNb secretion in bone marrow derived macrophages (BMDMs) from C57BL/6 wild type (WT) mice, mice with global deletion of CD11b (KO), or C57BL/6 mice expressing CD11b with a point mutation (KI), the macrophages treated for 4 hours with vehicle DMSO (UT), LA1 (20 uM), IMQ (20 ug/mL), or IMQ and LA1 co-treatment. Bars show mean with SD (N=3) (*P<0.05, **P<0.01, ***P<0.001, ****P<0.0001).
Bone marrow derived macrophages (BMDMs) from C57BL/6 wild type mice (WT), mice with global deletion of CD11b (KO), and C57BL/6 mice expressing CD11b with a point mutation (KI), as described previously (Martinez et al., 2020) were used to evaluate the effect of pharmacologic activation of CD11b by LA1 or genetic activation of CD11b on TLR-pathway dependent biomarkers. BMDMs from WT, KO, and KI mice were left untreated, treated with LA1, treated with IMQ, or co-treated with LA1 and IMQ and levels of biomarkers IL-1b, suPAR, IL-6 and IFN-b were measured 4 hours after treatment.

In assay [3] the test system is TLR4 mediated pathways. Kind of assay: Relative gene expression in myeloid cells stimulated with LPS. Type of assay: cell-based. The following applies: LPS (50ng/ml) and LA1 (20 uM) co-treatment, 4 hour. On the procedure: FIG. 4A illustrates the relative gene expression of biomarker IL-1bin myeloid cells after 4 hour of treatment with vehicle DMSO (UT), LA1 (20 uM), LPS (50ng/ml), or LPS and LA1 co-treatment.
FIG. 4B illustrates the relative gene expression of biomarker IL-18 in myeloid cells after 4 hour of treatment with vehicle DMSO (UT), LA1 (20 uM), LPS (50ng/ml), or LPS and LA1 co-treatment.
FIG. 4C illustrates the relative gene expression of biomarker uPAR in myeloid cells after 4 hour of treatment with vehicle DMSO (UT), LA1 (20 uM), LPS (50ng/ml), or LPS and LA1 co-treatment.
FIG. 4D illustrates the relative gene expression of biomarker IL-6 in myeloid cells after 4 hour of treatment with vehicle DMSO (UT), LA1 (20 uM), LPS (50ng/ml), or LPS and LA1 co-treatment.
The impact of CD11b activation by LA1 on TLR4 mediated pathways was similarly assessed by stimulating myeloid cells with LPS, a known TLR4 stimulant, and co-treating with LA1.

Assay [4] has as its system TLR signaling pathways. Kind of assay: Relative gene expression in RAW cells treated with Poly(I:C). The assay is classed as cell-based, murine. The following applies: Poly(I:C) (0.1 ug/mL) and LA1 (20 uM) co-treatment, 4 hours. On the procedure:
FIG. 2C illustrates relative gene expression of biomarker uPAR in RAW cells after 4 hours of treatment with Poly(I:C) (0.1 ug/mL), LA1 (20 uM), and Poly(I:C) […] LA1 co-treatment.
FIG. 2D illustrates relative gene expression biomarker IL-1b in RAW cells after 4 hours of treatment with Poly(I:C) (0.1 ug/mL), LA1 (20 uM), or Poly(I:C) and LA1 co-treatment.
The effect of LA1 on TLR-stimulation dependent pro-inflammatory pathways was studied by stimulating myeloid cells with different TLR-stimulants (lipopolysaccharide (LPS), Pam2CSK 4, imiquimod (IMQ)) or with phorbol 12-myristate 13-acetate (PMA) and co-treating with LA1. The levels of suPAR (pg/mL) and TNFa (pg/mL) in cell supernatant were measured 4 hours after treatment using ELISA. […] Relative gene expression was also assessed in myeloid cells treated with Poly(I:C), a known toll-like receptor (TLR) agonist, and co-treated with LA1.

`O=C(O)c1ccc(-c2ccc(/C=C3\SC(=S)N(Cc4ccccc4)C3=O)o2)cc1` [LA1, (Z)-4-(5-((3-benzyl-4-oxo-2-thioxothiazolidin-5-ylidene)methyl)furan-2-yl)benzoic acid]: in assay [1] (LA1 30 mg/kg oral), the “serum IL-6 levels versus non-LPS injected WT control” value was “no difference”. Moreover, the “serum IL-6 levels versus non-LPS injected WT control” value in assay [1] (LA1 60 mg/kg oral) is “no difference”. The “IL-6 levels in murine sera” value in assay [1] (single oral dose of LA1 (2, 10, 30, 60 mg/kg) co-administered with LPS, dose dependent) is on record as “significantly reduced”. In addition, in assay [2], the “level of IFN-b in cell supernatant” value is on record as “did not change basal levels”, the “level of IL-1b in cell supernatant” value was “did not change basal levels”, the “level of IL-6 in cell supernatant” value is listed as “did not change basal levels” and the “level of suPAR in cell supernatant” value is on record as “did not change basal levels”. Also, in assay [3], the “expression of biomarker IL-1b” value is “significantly decreased”, the “expression of biomarker IL-6” value is given as “significantly decreased”, the “expression of biomarker IL-18” value is “significantly decreased” and the “expression of biomarker uPAR” value is recorded as “significantly decreased”. Also, in assay [4], the “relative gene expression of biomarker IL-1b” value is given as “significantly reduced” and the “relative gene expression of biomarker uPAR” value is “significantly reduced”.
